This is an account of results in US20090215758A1, “Use of 2,5-Disubstituted Thiazol-4-One Derivatives in Drugs” (Gruenenthal GmbH, priority 2005, published 2009).

Assay [1] addresses T1, vanilloid receptor 1 (VR1/TRPV1) of the rat species (Rattus norvegicus, UniProt O35433).
T1 construct: The spinal column is removed from beheaded rats; from tissue; host or cells: primary cells from rat dorsal root ganglia (DRGs)
Put plainly: Functional study on vanilloid receptor 1, FLIPR Ca2+ assay in rat dorsal root ganglia cells. The format is cell-based. As to conditions: for inhibition at 10 µM / activation at 10 µM / VR1 (rat) (% stimulation compared to 10 μM CP) / VR1 (rat) (% inhibition compared to 10 μM CP): test compound 10 μM; for inhibition at 10 µM / VR1 (rat) (% inhibition compared to 10 μM CP): 5 min incubation, then 100 nM capsaicin, relative to maximum inhibition with 10 μM capsaicin; for inhibition at 10 µM: read-out: VR1 (rat) (% inhibition compared to 10 μM CP); for activation at 10 µM / VR1 (rat) (% stimulation compared to 10 μM CP): Ca2+ signal relative to 10 μM capsaicin (CP); for activation at 10 µM: read-out: VR1 (rat) (% stimulation compared to 10 μM CP); for EC50: unit inferred. On the procedure: The agonistic or antagonistic action of the substances to be studied on the vanilloid receptor 1 (VR1/TRPV1) of the rat species can be determined with the following assay. In this assay, the Ca^2+ current through the receptor channel is quantified with the aid of a Ca^2+-sensitive dye (Fluo-4 type, Molecular Probes Europe BV, Leiden the Netherlands) in a fluorescent imaging plate reader (FLIPR, Molecular Devices, Sunnyvale, USA).
Complete medium: 50 ml HAMS F12 Nutrient Mixture (Gibco Invitrogen GmbH, Karlsruhe, Germany) with 10% by volume of FCS (fetal calf serum, Gibco Invitrogen GmbH, Karlsruhe, Germany, heat-inactivated);
2 mM L-glutamine (Sigma, Munich, Germany);
1% by weight of AA solution (antibiotic/antimycotic solution, PAA, Pasching, Austria) and 25 ng/ml of NGF medium (2.5 S, Gibco Invitrogen GmbH, Karlsruhe, Germany)
Cell culture plate: poly-D-lysine-coated, black 96-hole plates with a clear bottom (96 well black/clear plate, BD Biosciences, Heidelberg, Germany) are additionally coated with laminin (Gibco Invitrogen GmbH, Karlsruhe, Germany) by diluting laminin to a concentration of 100 μg/ml with PBS (Ca—Mg-free PBS, Gibco Invitrogen GmbH, Karlsruhe, Germany). Aliquots having a concentration of 100 μg/ml of laminin are withdrawn and stored at −20° C. The aliquots are diluted with PBS in a ratio of 1:10 to 10 μg/ml of laminin and in each case 50 μl of the solution are pipetted into a well of the cell culture plate. The cell culture plates are incubated at 37° C. for at least two hours, the supernatant solution is removed by suction and the wells are each washed twice with PBS. The coated cell culture plates are stored with supernatant PBS which is not removed until directly before the application of the cells.
The spinal column is removed from beheaded rats and placed directly into cold HBSS buffer (Hank's buffered saline solution, Gibco Invitrogen GmbH, Karlsruhe, Germany), i.e. placed in an ice bath, which has been admixed with 1% by volume of an AA solution (antibiotic/antimycotic solution, PAA, Pasching, Austria). The spinal column is severed longitudinally and removed from the spinal canal together with fasciae. Subsequently, the dorsal root ganglia (DRGs) are removed and in turn stored in cold HBSS buffer admixed with 1% by volume of an AA solution. The DRGs freed completely of blood residues and spinal nerves are in each case transferred to 500 μl of cold type 2 collagenase (PAA, Pasching, Austria) and incubated at 37° C. for 35 minutes. […] After complete incubation, the enzyme solution is cautiously pipetted off and the remaining DRGs are each suspended with 500 μl of complete medium.
The DRGs are each suspended repeatedly, drawn through cannulas No. 1, No. 12 and No. 16 by means of a syringe and transferred to 50 ml Falcon tubes which are made up to 15 ml with complete medium. The contents of each Falcon tube are in each case filtered through a 70 μm Falcon filter insert and centrifuged at 1200 revolutions and room temperature for 10 minutes. The resulting pellet is in each case taken up in 250 μl of complete medium and the cell count is determined.
The number of cells in the suspension is adjusted to 3 times 10^5 per ml and in each case 150 μl of this suspension are added to one well of the cell culture plates coated as described above.
Subsequently, the cells are laden with 2 μM Fluo-4 and 0.01% by volume of Pluronic F127 (Molecular Probes Europe BV, Leiden, the Netherlands) in HBSS buffer (Hank's buffered saline solution, Gibco Invitrogen GmbH, Karlsruhe, Germany) at 37° C. for 30 min, washed 3× with HBSS buffer and, after a further incubation of 15 minutes, used in the FLIPR assay at room temperature for Ca^2+ measurement. The Ca^2+-dependent fluorescence is measured before and after addition of substances (λex=488 nm, λem=540 nm). The quantification is effected by the measurement of the highest fluorescence intensity (FC, fluorescence counts) over the time.

In the next assay the target is T2, VR1 (human) (Homo sapiens, UniProt Q8NER1).
T2 construct: expressed in transfected cells; host or cells: CHO K1 cells (ECACC), stably transfected
The assay can be described thus: Functional study on vanilloid receptor (VR1), FLIPR Ca2+ assay in CHO K1 cells stably transfected with the VR1 gene. The format is cell-based. As to conditions: for inhibition at 10 µM / activation at 10 µM: CHO-K1, test compound 10 μM; for inhibition at 10 µM / VR1 (human) (% inhibition compared to 10 μM CP): 5 min incubation, then 100 nM capsaicin, compared to 10 μM CP; for activation at 10 µM / VR1 (human) (% stimulation compared to 10 μM CP): Ca2+ signal relative to 10 μM capsaicin (CP); for activation at 10 µM: read-out: VR1 (human) (% stimulation compared to 10 μM CP); for VR1 (human) (% inhibition compared to 10 μM CP) / VR1 (human) (% stimulation compared to 10 μM CP): test compound 10 μM; for EC50: unit inferred. An excerpt: The agonistic or antagonistic action of the substances to be tested on vanilloid receptor (VR1) can also be determined with the assay which follows. In this assay, the Ca^2+ current through the channel is quantified with the aid of a Ca^2+-sensitive dye (Fluo-4 type, Molecular Probes, Europe BV, Leiden, the Netherlands) in a fluorescent imaging plate reader (FLIPR, Molecular Devices, Sunnyvale, USA).
Chinese hamster ovary cells (CHO K1 cells, European Collection of Cell Cultures (ECACC) Great Britain) are transfected stably with the VR1 gene. For functional studies, these cells are plated out onto poly-D-lysine-coated black 96-well plates with a clear bottom (BD Biosciences, Heidelberg, Germany) in a density of 25 000 cells/well. The cells are incubated overnight at 37° C. and 5% CO2 in a culture medium (Ham's Nutrient Mixture F12, 10% by volume of FCS (fetal calf serum), 18 μg/ml of L-proline). The next day, the cells are incubated with Fluo-4 (Fluo-4 2 μM, Pluronic F127 0.01% by volume, Molecular Probes in HBSS (Hank's buffered saline solution), Gibco Invitrogen GmbH, Karlsruhe, Germany) at 37° C. for 30 minutes. Subsequently, the plates are washed 3 times with HBSS buffer and, after a further incubation of 15 minutes at room temperature, used for Ca^2+ measurement in FLIPR. The Ca^2+-dependent fluorescence is measured before and after addition of the substances to be studied (wavelength λex=488 nm, λem=540 nm). The quantification is effected by measuring the highest fluorescence intensity (FC, fluorescence counts) over the time.
The FLIPR protocol consists of 2 substance additions. First, the substances to be tested (10 μM) are pipetted onto the cells and the Ca current is compared with the control (capsaicin 10 μM) (% activation based on the Ca^2+ signal after addition of 10 μM capsaicin). After incubation for 5 minutes, 100 nM capsaicin is applied and the current of Ca^2+ is likewise determined.

Counter-ions that a name gives are not always drawn.

T1 sequence (O35433 whole entry): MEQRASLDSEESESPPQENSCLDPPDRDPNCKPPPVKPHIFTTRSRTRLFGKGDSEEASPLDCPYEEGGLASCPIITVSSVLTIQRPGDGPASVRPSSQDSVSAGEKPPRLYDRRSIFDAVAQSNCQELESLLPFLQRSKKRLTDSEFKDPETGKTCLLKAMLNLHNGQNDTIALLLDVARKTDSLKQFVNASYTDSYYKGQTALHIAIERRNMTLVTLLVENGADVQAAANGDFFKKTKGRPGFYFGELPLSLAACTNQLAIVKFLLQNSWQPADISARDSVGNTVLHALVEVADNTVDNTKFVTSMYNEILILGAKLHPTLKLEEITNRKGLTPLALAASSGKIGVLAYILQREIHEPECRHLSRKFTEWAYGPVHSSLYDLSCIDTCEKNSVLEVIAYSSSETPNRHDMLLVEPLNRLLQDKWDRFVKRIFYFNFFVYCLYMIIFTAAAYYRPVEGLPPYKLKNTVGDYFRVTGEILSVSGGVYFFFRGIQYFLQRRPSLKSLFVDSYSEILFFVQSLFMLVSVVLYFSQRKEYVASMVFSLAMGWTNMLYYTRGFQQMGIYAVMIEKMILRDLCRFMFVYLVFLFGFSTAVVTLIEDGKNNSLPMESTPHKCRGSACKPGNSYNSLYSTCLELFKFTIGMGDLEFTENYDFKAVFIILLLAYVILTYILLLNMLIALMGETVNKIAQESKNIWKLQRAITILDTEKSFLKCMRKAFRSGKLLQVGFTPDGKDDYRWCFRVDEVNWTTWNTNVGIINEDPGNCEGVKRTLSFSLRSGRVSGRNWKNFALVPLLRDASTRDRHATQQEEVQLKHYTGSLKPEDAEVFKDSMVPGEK
T2 sequence (Q8NER1 whole entry): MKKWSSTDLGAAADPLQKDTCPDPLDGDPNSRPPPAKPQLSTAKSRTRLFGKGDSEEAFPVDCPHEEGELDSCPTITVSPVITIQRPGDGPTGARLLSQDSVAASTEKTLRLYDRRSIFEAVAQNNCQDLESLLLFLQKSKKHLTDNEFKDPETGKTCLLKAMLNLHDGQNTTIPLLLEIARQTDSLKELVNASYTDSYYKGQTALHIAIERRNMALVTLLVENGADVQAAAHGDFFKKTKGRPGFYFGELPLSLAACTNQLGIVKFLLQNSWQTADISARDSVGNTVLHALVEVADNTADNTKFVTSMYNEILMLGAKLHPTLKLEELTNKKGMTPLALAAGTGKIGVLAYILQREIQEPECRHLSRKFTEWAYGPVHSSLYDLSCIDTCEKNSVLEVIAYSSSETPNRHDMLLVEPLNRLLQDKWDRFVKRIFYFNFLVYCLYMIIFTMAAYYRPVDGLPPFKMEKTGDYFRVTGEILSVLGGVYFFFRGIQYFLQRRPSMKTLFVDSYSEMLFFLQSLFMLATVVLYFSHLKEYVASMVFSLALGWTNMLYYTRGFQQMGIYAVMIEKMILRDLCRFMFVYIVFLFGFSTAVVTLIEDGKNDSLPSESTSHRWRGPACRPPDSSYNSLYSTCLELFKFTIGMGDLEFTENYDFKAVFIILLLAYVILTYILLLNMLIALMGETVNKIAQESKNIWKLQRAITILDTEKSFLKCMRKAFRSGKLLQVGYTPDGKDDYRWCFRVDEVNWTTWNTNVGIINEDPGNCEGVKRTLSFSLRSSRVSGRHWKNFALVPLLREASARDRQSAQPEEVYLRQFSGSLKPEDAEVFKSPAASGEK

Turning to `Cc1ccc(C=C2SC(N3CCN(c4ncccc4Cl)CC3)=NC2=O)cc1` [Example 30, 2-[4-(3-chloropyridin-2-yl)piperazin-1-yl]-5-(4-methylbenzylidene)thiazol-4-one], the results for the inhibition at 10 µM (in assay [1]; against VR1 (human)) were 97% and 73.3%, respectively. In addition, the activation at 10 µM in assay [1] came to 0.92%; at VR1 (human), 0.06%.
Take `Br.Cc1ccc(C=C2SC(N3CCOCC3)=NC2=O)cc1` [Example 176, 5-(4-methylbenzylidene)-2-morpholin-4-ylthiazol-4-one hydrobromide]: in assay [1], the inhibition (usually the drop in the measured response relative to a control, in per cent) at 10 µM was found to be 97.5% and the activation at 10 µM stood at 44.7%. Further, at VR1 (human), the activation at 10 µM came to 14.5% and the “VR1 (human) (% inhibition compared to 10 μM CP)” value is on record as 35.32%.
Turning to `CC1CN(C(=O)c2cccc(C=C3SC(N4CCSCC4)=NC3=O)c2)CCN1c1ncccc1Cl` (stereo not drawn) [Example 110, 5-{3-[4-(3-chloropyridin-2-yl)-3-methylpiperazine-1-carbonyl]benzylidene}-2-thiomorpholin-4-ylthiazol-4-one], the inhibition at 10 µM in assay [1] was found to be 50.3%; against VR1 (human), 28.8%. In addition, the activation at 10 µM was 49.3% in assay [1] and 1.02% on VR1 (human).
With `CN(C)c1ccc(C=C2SC(N3CCOCC3)=NC2=O)cc1` [Example 235, 5-(4-dimethylaminobenzylidene)-2-morpholin-4-ylthiazol-4-one], in assay [1], the inhibition at 10 µM was determined as 13.7% and the activation at 10 µM came to 123%. Besides, at VR1 (human), the inhibition at 10 µM was found to be 44.5% and the activation at 10 µM came out at 73.9%.
Regarding `O=C1N=C(N2CCSCC2)SC1=Cc1cccc(C(=O)N2CCN(c3ncc(C(F)(F)F)cc3Cl)CC2)c1` [Example 113, 5-{3-[4-(3-chloro-5-trifluoromethylpyridin-2-yl)piperazine-1-carbonyl]-benzylidene}-2-thiomorpholin-4-ylthiazol-4-one], the inhibition at 10 µM was found to be 97.4% in assay [1] and 97.8% against VR1 (human). Further, the results for the activation at 10 µM (in assay [1]; at VR1 (human)) were 136% and 90.3%, respectively.
For the compound `O=C1N=C(N2CCOCC2)SC1=Cc1cccc(C(F)(F)F)c1` [Example 205, 2-morpholin-4-yl-5-(3-trifluoromethylbenzylidene)thiazol-4-one hydrobromide], in assay [1], the inhibition at 10 µM is 96.4% and the activation at 10 µM came out at 79.6%. In addition, on VR1 (human), the inhibition at 10 µM amounted to 103% and the activation at 10 µM came out at 68.2%.
Take `O=C1N=C(N2CCOCC2)SC1=Cc1ccc(OCc2ccccc2)cc1` [Example 21, 5-(4-benzyloxybenzylidene)-2-morpholin-4-ylthiazol-4-one]: in assay [1], the inhibition at 10 µM amounted to 50.1%; the activation at 10 µM turned out to be 55.8%; the EC50 (in general, the concentration giving half of the maximal effect) came out at 6.59 µM. Also, on VR1 (human), the inhibition at 10 µM stood at 28.5%, the activation at 10 µM was determined as 36.5% and the EC50 came to 8.51 µM.
For the compound `CC(C)(C)c1ccc(C=C2SC(N3CCOCC3)=NC2=O)cc1` [Example 197, 5-(4-tert-butylbenzylidene)-2-morpholin-4-ylthiazol-4-one], in assay [1], the inhibition at 10 µM was determined as 94.3% and the “VR1 (rat) (% stimulation compared to 10 μM CP)” value is recorded as 63.86%. For the same compound, at VR1 (human), the inhibition at 10 µM is 72.4% and the activation at 10 µM was found to be 48%.
As for `O=C1N=C(N2CCSCC2)SC1=Cc1ccccc1C(F)(F)F` [Example 22, 2-thiomorpholin-4-yl-5-(2-trifluoromethylbenzylidene)thiazol-4-one], in assay [1], the inhibition at 10 µM is 88.1%, the activation at 10 µM stood at 116% and a half-maximal response (EC50) required 8.48 µM. Further, on VR1 (human), the inhibition at 10 µM is 80.8%, the activation at 10 µM was 64% and the EC50 turned out to be 9.06 µM.
Regarding `O=C1N=C(N2CCOCC2)SC1=Cc1cccc(C(F)(F)F)c1` [Example 206, 2-morpholin-4-yl-5-(3-trifluoromethylbenzylidene)thiazol-4-one], in assay [1], the “VR1 (rat) (% inhibition compared to 10 μM CP)” value was found to be 102.30% and the “VR1 (rat) (% stimulation compared to 10 μM CP)” value came to 76.51%. Also, at VR1 (human), the “VR1 (human) (% inhibition compared to 10 μM CP)” value came out at 95.06% and the “VR1 (human) (% stimulation compared to 10 μM CP)” value worked out at 77.26%.
`O=C1N=C(N2CCOCC2)SC1=Cc1ccccn1` [Example 210, 2-morpholin-4-yl-5-pyridin-2-ylmethylenethiazol-4-one]: in assay [1], the inhibition at 10 µM came to 23% and the activation at 10 µM amounted to 2.22%. Besides, at VR1 (human), the inhibition at 10 µM came out at 3.03% and the activation at 10 µM was determined as 1.83%.
Regarding `CC(C)(C)c1ccc(C=C2SC(N3CCSCC3)=NC2=O)cc1` [Example 198, 5-(4-tert-butylbenzylidene)-2-thiomorpholin-4-ylthiazol-4-one hydrobromide], in assay [1], the inhibition at 10 µM worked out at 97.6%, the activation at 10 µM came to 60.7% and the EC50 was 1.12 µM. Moreover, on VR1 (human), the inhibition at 10 µM was found to be 76.7%, the activation at 10 µM stood at 54.3% and the EC50 was found to be 1.02 µM.
Regarding `Br.O=C1N=C(N2CCSCC2)SC1=CC=Cc1ccccc1` [Example 190, 5-(3-phenylallylidene)-2-thiomorpholin-4-ylthiazol-4-one hydrobromide], in assay [1], the “VR1 (rat) (% inhibition compared to 10 μM CP)” value was 83.13%, the “VR1 (rat) (% stimulation compared to 10 μM CP)” value is on record as 51.35% and the EC50 stood at 14.3 µM. At VR1 (human), the “VR1 (human) (% inhibition compared to 10 μM CP)” value is 32.35%, the “VR1 (human) (% stimulation compared to 10 μM CP)” value is 34.09% and the EC50 was over 25 µM.
